The species entered for assay [1] is Homo sapiens. In words: Selectivity for cathepsin S over cathepsin B.
For assay [2], the species on record is Homo sapiens. Nature of the assay: Selectivity for cathepsin S over cathepsin L.
The species named for assay [3] is Homo sapiens. In words: Selectivity for cathepsin S over cathepsin K.

SMILES strings stand for the structures.

In the case of `CC(C)Cc1ccc(-c2ccccc2OCC=O)c(F)c1F`, the values for the Activity in the assay listed under Homo sapiens [1], in the assay filed under Homo sapiens [2] and in the assay filed under Homo sapiens [3] were above 1000, above 1000 and above 100, respectively.

The values above are taken from ChEMBL document CHEMBL1143066, “Characterization and optimization of selective, nonpeptidic inhibitors of cathepsin S with an unprecedented binding mode” (J Med Chem, 2007).
